Data reported in paper PMC12073449, “Development of a Mechanism of Action-Reflective Cell-Based Reporter Gene Assay for Measuring Bioactivities of Therapeutic Glucagon-like Peptide-2 Analogues” (Molecules, 2025).
Ends that are not written are not given here.

Test system: HEK293-GLP-2R-Luc cells

For “HGEGTFSSELATILDALAARDFINWLIATKITDKKKKKK-NH2 [glepaglutide]”, the “log2 (TD/Ctrl) CACNB1” value (Qvalue 4.04 × 10^−5) was 1.075, the “log2 (TD/Ctrl) CHAC1” value (Qvalue 4.05 × 10^−4) was 1.141 and the “log2 (TD/Ctrl) PDK4” value (Qvalue 4.05 × 10^−7) was 1.463. For the same substance, the “log2 (TD/Ctrl) GUCY1A1” value (Qvalue 4.19 × 10^−5) was −1.107, the “log2 (TD/Ctrl) SNAP25” value (Qvalue 4.24 × 10^−5) was 1.698 and the “log2 (TD/Ctrl) CALCB” value (Qvalue 4.28 × 10^−58) was 3.658. The “log2 (TD/Ctrl) PDE8B” value (Qvalue 4.35 × 10^−6) was 1.08, the “log2 (TD/Ctrl) FAM86B2” value (Qvalue 4.40 × 10^−6) was 1.144 and the “log2 (TD/Ctrl) CD55” value (Qvalue 4.43 × 10^−29) was 1.554. For the same substance, the “log2 (TD/Ctrl) PDE10A” value (Qvalue 4.45 × 10^−11) was 1.052, the “log2 (TD/Ctrl) IGFBP5” value (Qvalue 4.48 × 10^−29) was −1.803 and the “log2 (TD/Ctrl) PPP1R15A” value (Qvalue 4.52 × 10^−19) was 1.729. The “log2 (TD/Ctrl) FAM131B” value (Qvalue 4.57 × 10^−4) was 2.284, the “log2 (TD/Ctrl) DCLK1” value (Qvalue 4.77 × 10^−6) was 1.118 and the “log2 (TD/Ctrl) ARC” value (Qvalue 4.77 × 10^−21) was 2.548. The “log2 (TD/Ctrl) TRMT11” value (Qvalue 4.83 × 10^−7) was 1.007, the “log2 (TD/Ctrl) BRSK1” value (Qvalue 4.84 × 10^−4) was 1.033 and the “log2 (TD/Ctrl) CXCL8” value (Qvalue 4.89 × 10^−10) was 2.264. The “log2 (TD/Ctrl) MMP10” value (Qvalue 4.91 × 10^−4) was 2.63, the “log2 (TD/Ctrl) NTS” value (Qvalue 4.98 × 10^−8) was 3.901 and the “log2 (TD/Ctrl) INKA2” value (Qvalue 5.19 × 10^−4) was −1.14. For the same substance, the “log2 (TD/Ctrl) RSRC2” value (Qvalue 5.28 × 10^−10) was 1.09, the “log2 (TD/Ctrl) PCDH9” value (Qvalue 5.30 × 10^−8) was −1.158 and the “log2 (TD/Ctrl) NCOA5” value (Qvalue 5.31 × 10^−8) was −1.2433. The “log2 (TD/Ctrl) PROCR” value (Qvalue 5.32 × 10^−8) was 1.201, the “log2 (TD/Ctrl) AVPI1” value (Qvalue 5.33 × 10^−8) was 1.192 and the “log2 (TD/Ctrl) IL12A” value (Qvalue 5.36 × 10^−4) was 1.606. For the same substance, the “log2 (TD/Ctrl) CCN2” value (Qvalue 5.36 × 10^−15) was 2.558, the “log2 (TD/Ctrl) PCSK1” value (Qvalue 5.37 × 10^−34) was 5.002 and the “log2 (TD/Ctrl) HSPB8” value (Qvalue 5.44 × 10^−4) was 1.961. The “log2 (TD/Ctrl) CHGB” value (Qvalue 5.45 × 10^−20) was 3.305, the “log2 (TD/Ctrl) LY6K” value (Qvalue 5.54 × 10^−6) was 2.444 and the “log2 (TD/Ctrl) TNFRSF10D” value (Qvalue 5.55 × 10^−11) was −1.432. For the same substance, the “log2 (TD/Ctrl) RNF122” value (Qvalue 5.63 × 10^−24) was 1.985, the “log2 (TD/Ctrl) PAPPA” value (Qvalue 5.75 × 10^−4) was 1.578 and the “log2 (TD/Ctrl) CTH” value (Qvalue 5.77 × 10^−13) was 1.317. For the same substance, the “log2 (TD/Ctrl) ETV5” value (Qvalue 5.77 × 10^−17) was 1.932, the “log2 (TD/Ctrl) FOSL1” value (Qvalue 5.84 × 10^−23) was 3.193 and the “log2 (TD/Ctrl) UBE2QL1” value (Qvalue 5.89 × 10^−10) was 1.897. The “log2 (TD/Ctrl) PCK1” value (Qvalue 5.99 × 10^−8) was 4.954, the “log2 (TD/Ctrl) SYAP1” value (Qvalue 6.03 × 10^−37) was 1.501 and the “log2 (TD/Ctrl) ADAMTS1” value (Qvalue 6.10 × 10^−16) was 1.32. For the same substance, the “log2 (TD/Ctrl) TSPAN18” value (Qvalue 6.12 × 10^−5) was 1.221, the “log2 (TD/Ctrl) ZNF697” value (Qvalue 6.15 × 10^−17) was 1.651 and the “log2 (TD/Ctrl) NME1-NME2” value (Qvalue 6.18 × 10^−4) was 1.069. For the same substance, the “log2 (TD/Ctrl) TAF1D” value (Qvalue 6.18 × 10^−6) was 1.001, the “log2 (TD/Ctrl) GAB2” value (Qvalue 6.27 × 10^−10) was 1.866 and the “log2 (TD/Ctrl) ZNF718” value (Qvalue 6.33 × 10^−4) was −1.3027. For the same substance, the “log2 (TD/Ctrl) OMA1” value (Qvalue 6.34 × 10^−6) was −1.165, the “log2 (TD/Ctrl) EPHA7” value (Qvalue 6.41 × 10^−18) was −1.443 and the “log2 (TD/Ctrl) NR4A3” value (Qvalue 6.44 × 10^−8) was 1.795. For the same substance, the “log2 (TD/Ctrl) AREG” value (Qvalue 6.48 × 10^−5) was 3.509, the “log2 (TD/Ctrl) ZCCHC12” value (Qvalue 6.60 × 10^−42) was 2.11 and the “log2 (TD/Ctrl) CHMP1B” value (Qvalue 6.69 × 10^−14) was 1.048. The “log2 (TD/Ctrl) KBTBD7” value (Qvalue 6.73 × 10^−6) was −1.122, the “log2 (TD/Ctrl) FAM200C” value (Qvalue 6.74 × 10^−4) was −1.19 and the “log2 (TD/Ctrl) EGR1” value (Qvalue 6.76 × 10^−10) was 2.978. The “log2 (TD/Ctrl) PLAUR” value (Qvalue 6.86 × 10^−10) was 1.559, the “log2 (TD/Ctrl) MAP2K6” value (Qvalue 6.95 × 10^−9) was −1.348 and the “log2 (TD/Ctrl) NR4A2” value (Qvalue 7.07 × 10^−23) was 2.428. For the same substance, the “log2 (TD/Ctrl) P2RY11” value (Qvalue 7.12 × 10^−9) was −9.7959, the “log2 (TD/Ctrl) CARMIL2” value (Qvalue 7.13 × 10^−10) was 1.753 and the “log2 (TD/Ctrl) COL7A1” value (Qvalue 7.17 × 10^−4) was −1.612. The “log2 (TD/Ctrl) KRT17” value (Qvalue 7.46 × 10^−4) was 3.685, the “log2 (TD/Ctrl) PTRH1” value (Qvalue 7.65 × 10^−4) was 1.322 and the “log2 (TD/Ctrl) CBARP” value (Qvalue 7.76 × 10^−5) was 1.225. For the same substance, the “log2 (TD/Ctrl) ZBTB12” value (Qvalue 7.78 × 10^−9) was −1.6, the “log2 (TD/Ctrl) CGA” value (Qvalue 7.84 × 10^−76) was 7.042 and the “log2 (TD/Ctrl) SERPINE2” value (Qvalue 7.93 × 10^−10) was 1.136. The “log2 (TD/Ctrl) GABARAPL1” value (Qvalue 8.03 × 10^−15) was 1.405, the “log2 (TD/Ctrl) COL1A1” value (Qvalue 8.07 × 10^−20) was 1.91 and the “log2 (TD/Ctrl) NDRG4” value (Qvalue 8.22 × 10^−4) was 1.306. For the same substance, the “log2 (TD/Ctrl) QRICH2” value (Qvalue 8.25 × 10^−6) was −1.253, the “log2 (TD/Ctrl) CD24” value (Qvalue 8.27 × 10^−27) was 2.289 and the “log2 (TD/Ctrl) ZNF331” value (Qvalue 8.43 × 10^−12) was 1.041. The “log2 (TD/Ctrl) FZD4” value (Qvalue 8.54 × 10^−5) was −1.071, the “log2 (TD/Ctrl) RGS6” value (Qvalue 8.61 × 10^−5) was 4.489 and the “log2 (TD/Ctrl) NR4A1” value (Qvalue 8.67 × 10^−7) was 4.426. For the same substance, the “log2 (TD/Ctrl) BMPER” value (Qvalue 8.87 × 10^−4) was 2.13, the “log2 (TD/Ctrl) IER2” value (Qvalue 9.14 × 10^−13) was 1.167 and the “log2 (TD/Ctrl) INHBA” value (Qvalue 9.22 × 10^−49) was 4.678. The “log2 (TD/Ctrl) SERPINB9” value (Qvalue 9.32 × 10^−11) was 1.4, the “log2 (TD/Ctrl) GADD45B” value (Qvalue 9.33 × 10^−42) was 1.995 and the “log2 (TD/Ctrl) FAM111B” value (Qvalue 9.51 × 10^−4) was −1.222. The “log2 (TD/Ctrl) FHL2” value (Qvalue 9.62 × 10^−6) was 1.082, the “log2 (TD/Ctrl) NFKB2” value (Qvalue 9.77 × 10^−25) was 1.551 and the “log2 (TD/Ctrl) EDA2R” value (Qvalue 9.85 × 10^−6) was −1.374. For the same substance, the “log2 (TD/Ctrl) EGR3” value (Qvalue 9.86 × 10^−8) was 2.228, the “log2 (TD/Ctrl) LAMB3” value (Qvalue 9.88 × 10^−5) was 1.323 and the “log2 (TD/Ctrl) SAP30L” value (Qvalue 9.88 × 10^−7) was −1.0123. For the same substance, the “log2 (TD/Ctrl) SCARA5” value (Qvalue […] 10^−12) was 3.284, the “log2 (TD/Ctrl) GCNA” value (Qvalue […] 10^−17) was 1.602 and the “log2 (TD/Ctrl) TAC1” value (Qvalue […] 10^−76) was 4.689.
